In this experiment the target is T1, Indoleamine 2,3-dioxygenase (Homo sapiens, UniProt P14902).
T1 construct: endogenous in cells; host or cells: SKOV-3 (ATCC HTB-77), stimulated with 50 ng/ml interferon gamma
Nature of the experiment: SKOV-3 Cellular Indoleamine 2,3-dioxygenase Assay. To be noted: SKOV-3 cells, 50 ng/ml Interferon gamma, 100 μM L-Tryptophan, 24 hours, N-Formylkynurenin fluorescence detection; read-out: cell based activity (IC50). The protocol: SKOV-3 Cellular Indoleamine 2,3-dioxygenase Assay
SKOV-3 cells were obtained from the American Type Culture Collection (ATCC® HTB-77™) and maintained in McCoy's medium (Pan Biotech) supplemented with 10% fetal bovine serum and 1% Penicillin/Streptomycin. Cells were kept at 37° C. in a humidified incubator with 5% CO2. For assay preparation, cells were seeded at a density of 2*10^5/ml into black clear bottom 96 well plates in 100 μl medium/well supplemented with 50 ng/ml Interferon gamma (eBioscience, Thermo Fisher Scientific). After cells fully adhered to the plate, dilution series of compounds were added in medium containing additional L-Tryptophan to a final L-Tryptophan concentration of 100 μM. The cells were incubated for 24 hours. Detection of produced N-Formylkynurenin was performed by addition of 3-Methylpiperidine to a final concentration of 200 mM. The plates were sealed and heated to 65° C. for 20 minutes in a water bath. After cooling the fluorescence of each well was recorded with a Victor™X4 (PerkinElmer) plate reader at an emission wavelength of 535 nm and excitation at 405 nm (Tomek et al.; Anal Bioanal Chem (2013) 405:2515-2524, Tomek et al.; Biochim Biophys Acta. 2015 September; 1850(9):1772-80).

pIC50: −log10 of the molar value.

What is called pIC50 is the negative decadic logarithm of the IC50, by convention in mol/L.

T1 sequence (P14902 whole entry): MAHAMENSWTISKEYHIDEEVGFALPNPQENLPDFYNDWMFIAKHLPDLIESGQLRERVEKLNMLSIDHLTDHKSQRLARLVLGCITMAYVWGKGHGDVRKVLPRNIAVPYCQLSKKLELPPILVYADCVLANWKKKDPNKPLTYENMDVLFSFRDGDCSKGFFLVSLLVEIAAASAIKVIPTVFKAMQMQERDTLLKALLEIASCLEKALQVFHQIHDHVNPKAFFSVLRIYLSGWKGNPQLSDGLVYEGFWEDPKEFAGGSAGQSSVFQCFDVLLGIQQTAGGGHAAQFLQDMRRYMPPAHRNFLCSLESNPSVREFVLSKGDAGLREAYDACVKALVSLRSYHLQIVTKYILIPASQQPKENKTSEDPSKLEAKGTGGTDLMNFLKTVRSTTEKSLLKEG

As to `CC(C(=O)Nc1ccc(Cl)cc1)[C@H]1CC[C@@]2(CCc3ccccc32)CC1` (single isomer, unassigned) [Example 2a, N-(4-chlorophenyl)-2-(2′,3′-dihydrospiro[cyclohexane-1,1′-inden]-4-yl)propanamide], the negative-log IC50 (pIC50) is > 7.30.

In the case of `CC(C(=O)Nc1ccc(Cl)cc1)C1CCC2(CC1)COc1nc(C(F)(F)F)ccc12` (single isomer, unassigned) [Example 5e, N-(4-chlorophenyl)-2-(6′-(trifluoromethyl)-2′H-spiro[cyclohexane-1,3′-furo[2,3-b]pyridin]-4-yl)propanamide], the negative logarithm of the IC50 (pIC50) was > 7.30. Consider `CC(C(=O)Nc1ccc(Cl)cc1)C1CCC2(CC1)c1ccc(C(F)(F)F)cc1C(=O)N2C` (single isomer, unassigned) [Example 6b, N-(4-Chlorophenyl)-2-(2′-methyl-3′-oxo-5′-(trifluoromethyl)spiro[cyclohexane-1,1′-isoindolin]-4-yl)propanamide], for which the negative logarithm of the IC50 (pIC50) was ≤ 7.30. As for `Cc1ccc(NC(=O)C(C)C2CCC3(CC2)COc2cc(C(F)(F)F)ccc23)cc1` (single isomer, unassigned) [Example 8d, N-(p-Tolyl)-2-(6-(trifluoromethyl)-2H-spiro[benzofuran-3,1′-cyclohexan]-4′-yl)propanamide], the figure is > 7.30; as for `CCC(C(=O)Nc1ccc(Cl)cn1)C1CCC2(CC1)COc1cc(C(F)(F)F)ccc12` (single isomer, unassigned) [Example 10b, N-(5-chloropyridin-2-yl)-2-(6-(trifluoromethyl)-2H-spiro[benzofuran-3,1′-cyclohexan]-4′-yl)butanamide], > 7.30. `CCC(C(=O)Nc1ccc(Cl)cn1)C1CCC2(CC1)COc1cc(C(F)(F)F)ccc12` (single isomer, unassigned) [Example 10e, N-(5-chloropyridin-2-yl)-2-(6-(trifluoromethyl)-2H-spiro[benzofuran-3,1′-cyclohexan]-4′-yl)butanamide]: the negative logarithm of the IC50 (pIC50) was ≤ 7.30.

Regarding `CC(C(=O)Nc1ccc(Cl)cc1)[C@H]1CC[C@@]2(CCc3ccccc32)CC1` (single isomer, unassigned) [Example 2b, N-(4-chlorophenyl)-2-(2′,3′-dihydrospiro[cyclohexane-1,1′-inden]-4-yl)propanamide], the negative-log IC50 (pIC50) was > 7.30.

On to `CC(c1nc2cc(Cl)ccc2[nH]1)C1CCC2(CC1)COc1cc(C(F)(F)F)ccc12` (single isomer, unassigned) [Example 11c, 5-Chloro-2-(1-(6-(trifluoromethyl)-2H-spiro[benzofuran-3,1′-cyclohexan]-4′-yl)ethyl)-1H-benzo[d]imidazole], for which the pIC50 is > 7.30.

Regarding `CC1CCC(NC(=O)C(C)C2CCC3(CC2)COc2cc(C(F)(F)F)ccc23)CC1` (single isomer, unassigned) [Example 9c, N-((1r,4r)-4-Methylcyclohexyl)-2-(6-(trifluoromethyl)-2H-spiro[benzofuran-3,1′-cyclohexan]-4′-yl)propanamide], the negative logarithm of the IC50 (pIC50) was ≤ 7.30. As for `CC(C(=O)Nc1ccc(Cl)cc1F)C1CCC2(CC1)COc1cc(C(F)(F)F)ccc12` (single isomer, unassigned) [Example 7d, N-(4-Chloro-2-fluorophenyl)-2-(6-(trifluoromethyl)-2H-spiro[benzofuran-3,1′-cyclohexan]-4′-yl)propanamide], the figure is > 7.30; as for `CC(C(=O)Nc1ccc(Cl)cc1F)C1CCC2(CC1)COc1cc(C(F)(F)F)ccc12` (single isomer, unassigned) [Example 7c, N-(4-Chloro-2-fluorophenyl)-2-(6-(trifluoromethyl)-2H-spiro[benzofuran-3,1′-cyclohexan]-4′-yl)propanamide], > 7.30.

For `Cc1ccc(NC(=O)C(C)C2CCC3(CC2)COc2cc(C(F)(F)F)ccc23)cc1` (single isomer, unassigned) [Example 8c, N-(p-Tolyl)-2-(6-(trifluoromethyl)-2H-spiro[benzofuran-3,1′-cyclohexan]-4′-yl)propanamide], the negative logarithm of the IC50 (pIC50) was > 7.30. As for `C[C@H](C(=O)Nc1ccc(Cl)cc1)[C@H]1CC[C@]2(CC1)COc1cc(C(F)F)ccc12` [Example 13, (S)—N-(4-chlorophenyl)-2-((3R,4′s)-6-(difluoromethyl)-2H-spiro[benzofuran-3,1′-cyclohexan]-4′-yl)propanamide], the figure is > 7.30; as for `CC1CCC(NC(=O)C(C)C2CCC3(CC2)COc2cc(C(F)(F)F)ccc23)CC1` (single isomer, unassigned) [Example 9e, N-((1r,4r)-4-Methylcyclohexyl)-2-(6-(trifluoromethyl)-2H-spiro[benzofuran-3,1′-cyclohexan]-4′-yl)propanamide], > 7.30.

Regarding `CC(c1nc2cc(Cl)ccc2[nH]1)C1CCC2(CC1)COc1cc(C(F)(F)F)ccc12` (single isomer, unassigned) [Example 11e, 5-Chloro-2-(1-(6-(trifluoromethyl)-2H-spiro[benzofuran-3,1′-cyclohexan]-4′-yl)ethyl)-1H-benzo[d]imidazole], the negative-log IC50 (pIC50) was > 7.30. As for `CC(C(=O)Nc1ccc(Cl)cc1F)C1CCC2(CC1)COc1cc(C(F)(F)F)ccc12` (single isomer, unassigned) [Example 7e, N-(4-Chloro-2-fluorophenyl)-2-(6-(trifluoromethyl)-2H-spiro[benzofuran-3,1′-cyclohexan]-4′-yl)propanamide], the figure is ≤ 7.30; as for `CC(C(=O)Nc1ccc(Cl)cc1)C1CCC2(CC1)COc1ncc(C(F)(F)F)cc12` (single isomer, unassigned) [Example 4b, N-(4-chlorophenyl)-2-(5′-(trifluoromethyl)-2′H-spiro[cyclohexane-1,3′-furo[2,3-b]pyridin]-4-yl)propanamide], ≤ 7.30; as for `C[C@@H](C(=O)Nc1ccc(Cl)cc1)[C@H]1CC[C@]2(CC1)COc1cc(C(F)(F)F)ccc12` [Example 3e, (R)—N-(4-chlorophenyl)-2-((3S,4′s)-6-(trifluoromethyl)-2H-spiro[benzofuran-3,1′-cyclohexan]-4′-yl)propanamide], ≤ 7.30. Turning to `Cc1ccc(NC(=O)C(C)C2CCC3(CC2)COc2cc(C(F)(F)F)ccc23)cc1` (single isomer, unassigned) [Example 8e, N-(p-Tolyl)-2-(6-(trifluoromethyl)-2H-spiro[benzofuran-3,1′-cyclohexan]-4′-yl)propanamide], the negative-log IC50 (pIC50) is ≤ 7.30. In the case of `CC(C(=O)Nc1ccc(Cl)cc1)C1CCC2(CC1)COc1ncc(C(F)(F)F)cc12` (single isomer, unassigned) [Example 4e, N-(4-chlorophenyl)-2-(5′-(trifluoromethyl)-2′H-spiro[cyclohexane-1,3′-furo[2,3-b]pyridin]-4-yl)propanamide], the pIC50 is > 7.30. As for `CC(C(=O)Nc1ccc(Cl)cc1)C1CCC2(CC1)COc1nc(C(F)(F)F)ccc12` (single isomer, unassigned) [Example 5c, N-(4-chlorophenyl)-2-(6′-(trifluoromethyl)-2′H-spiro[cyclohexane-1,3′-furo[2,3-b]pyridin]-4-yl)propanamide], the pIC50 was > 7.30.

In the case of `CC(C(=O)Nc1ccc(Cl)cc1F)C1CCC2(CC1)COc1cc(C(F)(F)F)ccc12` (single isomer, unassigned) [Example 7b, N-(4-Chloro-2-fluorophenyl)-2-(6-(trifluoromethyl)-2H-spiro[benzofuran-3,1′-cyclohexan]-4′-yl)propanamide], the pIC50 was > 7.30.

The record behind these values is patent US20210122757A1, “SPIROCYCLIC COMPOUNDS AS MODULATORS OF INDOLEAMINE 2,3-DIOXYGENASE” (PHENEX DISCOVERY VERWALTUNGS-GMBH, priority 2018, published 2021).
